Test results taken from ChEMBL document CHEMBL1143115, “Synthesis and biological properties of beta-turned Abeta(31-35) constrained analogues” (Bioorg Med Chem Lett, 2008).
Where a SMILES comes first, the peptide text is derived from it. [ ]: non-standard residue; d: D form. αMeP = C[C@@]1(C(=O)O)CCCN1; Aze = O=C(O)[C@@H]1CCN1; Aib = CC(C)(N)C(=O)O

How the values were obtained:
[1] = Neurotoxicity in Wistar rat neuronal cells assessed as induction of mortality at 10 uM; format: toxicity, cell-based
[2] = Neurotoxicity in Wistar rat neuronal cells assessed as induction of mortality at 100 uM; format: toxicity, cell-based
[3] = Binding affinity to immobilized amyloid beta 25-35 by Surface plasmon resonance
[4] = Protective effect against beta amyloid oligomers induced toxicity in Wistar rat neuronal cells at 100 uM; format: functional

Row | SMILES | Kd [3] | further results
1 | CC[C@H](C)[C@H](N)C(=O)N[C@H](C(=O)NCC(=O)N[C@@H](CC(C)C)C(=O)N[C@@H](CCSC)C(N)=O)[C@@H](C)CC (H-IIGLM-NH2) |  | Activity [1]: 10%; Activity [2]: 10%
2 | CC[C@H](C)[C@H](N)C(=O)N[C@H](C(=O)NCC(=O)N[C@@H](CC(C)C)C(=O)N[C@@H](CCSC)C(=O)O)[C@@H](C)CC (H-IIGLM-OH) |  | Activity [1]: 21%
3 | CC[C@H](C)[C@H](N)C(=O)N[C@H](C(=O)N1CC[C@H]1C(=O)N[C@@H](CC(C)C)C(=O)N[C@@H](CCSC)C(N)=O)[C@@H](C)CC (H-II[Aze]LM-NH2) | 4.6 mM | 

Further lines, with some results ahead:

Row | Kd [3] | SMILES | further results
4 | 4.49 mM | CC[C@H](C)[C@H](N)C(=O)N[C@H](C(=O)N1CCC[C@H]1C(=O)N[C@@H](CC(C)C)C(=O)N[C@@H](CCSC)C(N)=O)[C@@H](C)CC (H-IIPLM-NH2) | 
5 | 2.56 mM | CC[C@H](C)[C@H](N)C(=O)N[C@H](C(=O)NC(C)(C)C(=O)N[C@@H](CC(C)C)C(=O)N[C@@H](CCSC)C(N)=O)[C@@H](C)CC (H-II[Aib]LM-NH2) | Activity [4]: 24%
6 | 1.53 mM | CC[C@H](C)[C@H](N)C(=O)N[C@H](C(=O)N1CCC[C@@]1(C)C(=O)N[C@@H](CC(C)C)C(=O)N[C@@H](CCSC)C(N)=O)[C@@H](C)CC (H-II[αMeP]LM-NH2) | 
7 | 0.013 mM | Nc1c(/N=N/c2ccc(-c3ccc(/N=N/c4cc(S(=O)(=O)O)c5ccccc5c4N)cc3)cc2)cc(S(=O)(=O)O)c2ccccc12 [CONGO RED] | 
